Our source for the TGI and GI50 values is PubChem BioAssay (NCI).

What all share (assay): NCI anticancer screen, dose series, 48 h
Assay [1] deals with OVCAR-5 ovarian.
Assay [2] concerns TK-10 renal.
Assay [3] concerns OVCAR-3 ovarian.
Assay [4] has as its system SN12C renal.
Assay [5] concerns OVCAR-4 ovarian.
The subject of assay [6] is HOP-62 NSCLC.
In assay [7] the test system is EKVX NSCLC.
The test system of assay [8] is SW-620 colon.
In assay [9] the test system is LOX IMVI melanoma.
In assay [10] the test system is HOP-92 NSCLC.

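A five-concentration, 48-hour dose response in 96-well plates underlies each endpoint, interpolated linearly between surrounding concentrations. GI50 is the concentration that inhibits growth by half. The concentration for full growth arrest is given as TGI.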 A value given as a limit tells only on which side of the number the result lay.

As for `O=c1[nH]c2ccc([N+](=O)[O-])cc2nc1/C=C(\O)c1ccccc1`, the TGI in assay [1] was over 100 µM; in [2] it was 14.8 µM; in [3], 99.2 µM; in [4], 59.5 µM; in [5], 8.87 µM; in [6], 22.1 µM. In [7], this compound returned a TGI of over 100 µM.

As for `CCNC(=S)N/N=C(\C)c1cccc(C)n1`, the TGI in [1], in assay [2], in [3], in assay [4], in assay [8] and in assay [9] was over 100 µM each time. For the same compound, the figures for the TGI in [10], in assay [6] and in assay [7] were 53.1 µM, over 100 µM and over 100 µM, respectively.

With `CC1OC(=O)C(C(C)C)NC(=O)C(C(C)C)OC(=O)C(C(C)C)NC(=O)C(C)OC(=O)C(C(C)C)NC(=O)C(C(C)C)OC(=O)C(C(C)C)NC(=O)C(C)OC(=O)C(C(C)C)NC(=O)C(C(C)C)OC(=O)C(C(C)C)NC1=O` (stereo not given), the GI50 in assay [3] is under 0.0001 µM; in [4] it was 0.00019 µM; in assay [8], under 0.0001 µM; in assay [9] it was under 0.0001 µM; in assay [10], under 0.0001 µM; in assay [6], under 0.0001 µM. Further, the GI50 in [7] was under 0.0001 µM. Also, the TGI in assay [3] stood at 0.0148 µM; in assay [4], 0.233 µM; in assay [8] it was 4.85 µM; in assay [6] it was 0.0144 µM.

Take `COC(=O)c1ccc(NCC2=C(Br)C(=O)C=CC2=O)cc1Cl`: the TGI in [1] is 36.7 µM; in assay [2], 30.9 µM; in [3], 26.8 µM; in assay [4], 30.1 µM; in assay [8], 30.8 µM; in assay [9] it was 28.1 µM. Also, the TGI was 62.3 µM in assay [5], 29.1 µM in assay [10] and 27.9 µM in assay [7].

For the compound `CCN(CC)CCO[Si](OCCN(CC)CC)(OCCN(CC)CC)OCCN(CC)CC`, the TGI in assay [1], in [2], in assay [3], in assay [4], in assay [8] and in assay [9] was over 100 µM throughout. For the same compound, the TGI in assay [5] and in assay [7] was over 100 µM in each case.

For the compound `O=C1N(c2ccccc2)C(=S)/C(=C/c2ccc(Cl)cc2)N1c1ccc(Cl)cc1`, the TGI in [1] is over 100 µM; in assay [2], 89.8 µM; in assay [3], over 100 µM; in [4] it was over 100 µM; in assay [8] it was over 100 µM; in assay [9] it was 76.5 µM. The TGI in assay [5], in assay [6] and in [7] was over 100 µM each time.

For the compound `O=S(=O)(O)c1cc(S(=O)(=O)O)c2c(N=Nc3ccc(N=Nc4ccccc4)cc3)c(O)ccc2c1`, the TGI in assay [1], in assay [2], in [3], in assay [4], in [8] and in assay [5] was over 100 µM throughout. Besides, the TGI in assay [10], in [6] and in assay [7] was over 100 µM in each case.

Turning to `NC(=O)Oc1ccccc1`, the TGI in assay [2], in assay [3], in assay [4], in assay [8], in assay [9] and in assay [5] was over 100 µM each time. In [10], this compound had a TGI of over 100 µM.

For the compound `CCn1c2ccccc2c2cc(Nc3cc(C)[nH]c(=O)n3)ccc21`, the TGI in assay [1], in assay [2], in assay [3], in assay [4], in [8] and in [5] was over 100 µM each time. The TGI in assay [10], in [6] and in assay [7] was over 100 µM throughout.

With `S=c1nc[nH]c2c1ncn2C1CCCO1` (stereo not given), the TGI in [1], in [2], in [3], in assay [4], in assay [8] and in assay [9] was over 100 µM throughout. Further, the TGI in [5], in assay [10] and in [6] was over 100 µM in each case.

Turning to `Cc1ccc(S(=O)(=O)Nn2c(O)c(C#N)c(-c3ccc([N+](=O)[O-])cc3)c(C#N)c2=O)cc1`, the TGI in assay [1], in [2], in [4], in assay [8], in assay [9] and in assay [5] was over 100 µM each time. Besides, the TGI in assay [10], in [6] and in [7] was over 100 µM each time.

As for `CCOC(=O)C1=C(C)N(C2OC(COC(=O)c3ccccc3)C(OC(=O)c3ccccc3)C2OC(=O)c2ccccc2)C(=S)NC1c1ccccc1` (stereo not given), the TGI was over 100 µM in [1]; 71.9 µM in [3]; over 100 µM in [4]; over 100 µM in assay [8]; over 100 µM in assay [9]; over 100 µM in assay [5]. In addition, the results for the TGI in assay [6] and in assay [7] were over 100 µM and 62.2 µM, respectively.

On to `FC(F)(F)c1ccc2nc(Sc3ccc4ccccc4c3)cnc2c1`, for which the TGI in [1], in assay [2], in [4], in assay [8], in assay [9] and in assay [5] was over 100 µM each time. For the same compound, the TGI in assay [10], in assay [6] and in [7] was over 100 µM each time.

For the compound `CN1CCC2(CC1)C(=NC1CCCCC1)NC(=O)N2c1ccccc1`, the TGI in assay [1], in [2], in assay [4], in assay [8], in assay [10] and in [6] was over 100 µM throughout. The same compound displayed a TGI in [7] of over 100 µM.

Turning to `Cc1ccccc1NC(=O)Cc1csc(N=Nc2c(O)[nH]c3ccccc23)n1`, the TGI was over 100 µM in assay [1]; over 100 µM in [2]; over 100 µM in assay [4]; over 1 µM in assay [8]; over 100 µM in assay [9]; 62.7 µM in assay [5]. Also, the TGI in assay [10] and in assay [7] was over 100 µM each time.

With `NS(=O)(=O)c1ccc(N=Nc2ccc(O)c(C(=O)O)c2)cc1`, the TGI in assay [1], in [2], in assay [3], in [4], in assay [8] and in assay [5] was over 100 µM each time. The TGI in assay [10], in [6] and in assay [7] was over 100 µM in each case.

Turning to `O=C(CCC1CCCCN1)Nc1ccc2c(c1)C(=O)c1ccc(NC(=O)CCN3CCCCC3)cc1C2=O` (stereo not given), the TGI in [1] is 11.2 µM; in assay [2], 9.42 µM; in [3] it was 8.37 µM; in [4] it was 4.34 µM; in assay [9], 2.66 µM; in assay [5], 5.38 µM. The TGI in [10] is 5.98 µM; in assay [6] it was 27.9 µM.

As for `COC(=O)c1cc(/C=C\c2cc(OC)ccc2OC)ccc1OC`, the TGI in assay [1] was over 100 µM; in assay [2], over 100 µM; in [3], 65.8 µM; in assay [4] it was over 100 µM; in [8], over 100 µM; in assay [9], 56.9 µM. For the same compound, the figures for the TGI in assay [5], in assay [6] and in assay [7] were over 100 µM, 77.1 µM and 88.9 µM, respectively.

As for `Cc1ccc(/C=C2/N=C(N/N=C\c3ccccc3)NC2=O)cc1`, the TGI in [1], in assay [2], in [3], in assay [4], in assay [8] and in assay [9] was over 100 µM each time. The TGI in [5] was 55.1 µM; in [6] it was over 100 µM; in assay [7] it was over 100 µM.

For `Clc1cc2nnn(C3CCCO3)c2cc1Cl` (stereo not given), the TGI in [1], in [2], in [3], in assay [4], in assay [6] and in [7] was over 100 µM in each case.

For the compound `O=S(=O)(O)c1ccc2c(N=Nc3ccc(Sc4ccc(N=Nc5c(O)ccc6cc(S(=O)(=O)O)ccc56)cc4)cc3)c(O)ccc2c1`, the TGI in assay [1], in assay [2], in assay [3], in assay [4], in assay [8] and in assay [5] was over 100 µM each time. Besides, the TGI in [10], in assay [6] and in assay [7] was over 100 µM each time.

Turning to `CC[C@@]1(O)C(=O)OCc2c1cc1n(c2=O)Cc2c-1nc1ccccc1c2/C=N\NC(=O)C(N)Cc1c[nH]c2ccccc12` (stereo not given in full), the TGI was over 87 µM in assay [1]; over 100 µM in assay [2]; over 54.9 µM in assay [3]; over 95.3 µM in [4]; over 100 µM in [8]; 3.27 µM in assay [9]. Further, the values for the TGI in assay [5], in [10] and in assay [7] were over 100 µM, over 54 µM and over 100 µM, respectively.

As for `COc1ccc(CNc2nc3ccccc3nc2C(=O)O)cc1`, the TGI in [1], in assay [2], in assay [3], in assay [4], in [8] and in assay [9] was over 100 µM in each case. Besides, the TGI in [10], in [6] and in assay [7] was over 100 µM throughout.

On to `CN/N=C(\C(=O)Nc1ccc(C)c(C)c1)C(C(=O)OC)c1nc2ccc([N+](=O)[O-])cc2[nH]c1=O` (stereo not given), for which the TGI in assay [1], in [2], in assay [4], in [8], in [9] and in assay [5] was over 100 µM in each case. For the same compound, the TGI in [10], in [6] and in assay [7] was over 100 µM each time.

Take `C=CCNC(=S)/N=C/C(C(=O)Nc1ccccc1C)=C(\C)O`: the TGI in [1], in assay [2], in assay [3], in assay [4], in assay [8] and in assay [9] was over 100 µM each time. The TGI in assay [5], in [6] and in assay [7] was over 100 µM each time.

Turning to `O=C(N/N=C\c1ccc([N+](=O)[O-])s1)c1ccncc1`, the TGI in assay [1] was over 66.9 µM; in assay [2], over 51.7 µM; in [3], 8.06 µM; in assay [4], 26.8 µM; in [8], over 45.4 µM; in assay [5], 30.2 µM. The TGI in assay [10] was 32.8 µM; in [6], 35.3 µM; in assay [7], 45.6 µM.

Consider `CCCCCCCCCCCCO[P+](=O)OCCCCCCCCCCCC`, for which the TGI was over 100 µM in assay [1]; 99.2 µM in assay [2]; over 100 µM in [3]; over 100 µM in assay [4]; over 100 µM in [8]; over 100 µM in [5]. Also, the TGI in [10], in [6] and in assay [7] was over 100 µM each time.

For the compound `O=C(O)c1ccc(N/C(=C(/C(Cl)=C(Cl)Cl)[N+](=O)[O-])n2nnc3ccccc32)cc1`, the TGI in assay [1], in [3], in assay [4], in assay [8], in assay [5] and in [6] was over 100 µM throughout. In assay [7], this compound displayed a TGI of over 100 µM.

With `O=C1c2cc([N+](=O)[O-])sc2C(=O)c2c([N+](=O)[O-])csc21`, the TGI in assay [1] came out at 2.95 µM; in [2], 3 µM; in assay [4], 1.09 µM; in [8], 1.07 µM; in assay [9], 0.269 µM; in assay [5], 2.06 µM. Also, the TGI in assay [10] was 0.82 µM; in assay [7], 3.4 µM.

For the compound `O=C1CC(c2ccccc2)S(=O)c2ccccc2N1` (stereo not given), the TGI in assay [1], in assay [2], in assay [3], in assay [4], in assay [9] and in assay [5] was over 100 µM in each case. Moreover, the TGI in assay [6] and in [7] was over 100 µM in each case.
